Legend:
[1] = molecular target: T1, aqueous (water-solubilized) GPx4 (Homo sapiens, UniProt P36969, U73G); assay: 15N-HSQC CSP binding experiment with GPx4 in bulk aqueous conditions; conditions: for Binding to aqueous GPx4 (CSPs versus mmRM): 400 μM fragment, 100 μM GPx4, 1% DMSO; for Binding to aqueous GPx4 (CSPs): 15 mM fragment, 100 μM GPx4, 5% DMSO
T1 construct: Truncated U46G-GPx4 with a TEV cleavable poly-histidine tag was inserted into vector; poly-histidine tag with TEV cleavage site; host or cells: BL21 (DE3) E. coli
T1 sequence (P36969 1-170 isoform P36969-2 U46G): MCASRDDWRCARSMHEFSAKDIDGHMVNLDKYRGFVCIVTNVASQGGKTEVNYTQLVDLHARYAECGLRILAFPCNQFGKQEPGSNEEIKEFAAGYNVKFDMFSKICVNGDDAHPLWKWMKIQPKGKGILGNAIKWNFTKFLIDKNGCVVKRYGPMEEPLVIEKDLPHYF
Method: Next, we sought to understand whether fragment hits were solely bound to the membrane-embedded form of GPx4 or could also bind to the aqueous form. We performed aqueous binding experiments with 3 fragment hits with varying hydrophobicities. Of the fragment hits with Kd < 1 mM, the most hydrophobic fragment (fragment 5, cLog D 2.05, 5-hydroxy-1,3-benzoxathiol-2-one) and a hydrophilic fragment with the strongest affinity (fragment 6, cLog D −2.14, (2-methoxyethyl)(4-pyridinylmethyl)amine hydrochloride) were selected, along with a compound with an amphipathic structure and only modest hydrophobicity (fragment 1, cLog D 1.05, 4-(phenylamino)-1,2-dihydropyridin-2-one). Aqueous GPx4 was combined with 400 μM of either fragments 1, 5, or 6 to directly compare to the mmRM experiments. […] Since our fragments have variable degrees of solubility and partitioning, we realized that a hydrophilic fragment like 6 may partition into the water core of the mmRM, essentially causing a concentration effect as observed previously.[32],[33] To rule this out, the concentration of the fragments was increased to 15 mM in an aqueous sample, which would be the effective concentration if all of the fragments partitioned completely into the RM water core. […] DLS measurements were also collected to check for fragment aggregation in the aqueous conditions.[58] […] Inspection of ^1H NMR spectra confirmed that the aggregation observed at high concentration of fragments 1 and 5 is a small portion of the overall fragment concentration and that most of the fragment is in solution.
Fragments 1, 5, and 6 were selected to perform proof-of-concept experiments in bulk aqueous conditions. 400 μM and 15 mM aliquots of fragment were vacuum-dried overnight to remove excess DMSO. An apo GPx4 reference was collected with 1% DMSO or 5% DMSO to ensure that CSP calculations took into account DMSO needed for fragment solubilization. 100 μM GPx4 was added to the dried fragments, and DMSO was added to a total of 1% for the 400 μM and 5% for the 15 mM fragment experiments. These percentages were the lowest amounts needed to solubilize the fragments in solution. Prior to experimentation, the pH of the sample was checked to ensure that no change was observed upon the addition of the fragments. However, the 100 mM Bis-Tris at pH 6.0 ensured that the pH was not altered. ^15N-HSQC experiments were collected, and CSPs were analyzed and compared to the top-shifting resonances determined from the mmRM experiments. DLS measurements were collected to assess fragment aggregation in the aqueous conditions using a Malvern Zetasizer Nano-S instrument.

[2] = Fragment partitioning in DHPC/DMPC bicelles by 2D 1H-1H NOESY; assay type: physicochemical; conditions: 5 mM fragment, 100% D2O
Excerpt: To confirm partitioning behavior, we tested fragments in DHPC/DMPC bicelles, which use a bulk aqueous solvent, and the hydrophobic phase is confined to the bicelle interior. To successfully collect NOESY data, the sample solvent was composed of 100% D2O. […] Together, the results highlight the partitioning behavior of fragments that bind to GPx4. Hydrophilic, hydrophobic, or fragments that partition to the surfactant shell are all capable of binding to the membrane-bound state of GPx4 and may be detected using this method.
Partitioning coefficients for fragment hits and analogues were calculated using a Marvin Log D calculator (Chemaxon) and were used to prioritize fragments for 2D NOESYs. mmRMs were premade as previously described and loaded with 5 mM dried fragment 1, 5, or 6 before shaking overnight. A high concentration of fragments is needed for these experiments to observe the intermolecular NOEs between the fragments and the membrane model components. For the DHPC/DMPC samples, the q = 1.0 bicelles were constructed routinely,[55] as described in the Supporting Information, with an additional step to ensure the complete removal of water before experimentation. An aliquot of buffer (100 mM Bis-Tris pH 6.0, 100 mM NaCl, and 10 mM DTT) was frozen and freeze-dried overnight to remove residual water. The dried buffer was then resuspended in 100% D2O, mixed, and frozen before another round of freeze-drying. The components were then resuspended in 100% D2O again before being incorporated into the DHPC fraction of the bicelle. The DHPC solution was then mixed with dried DMPC, and bicelle formation proceeded. The NOESY experimental design was based on a previous work.[60] All NMR spectra were collected at 25 °C on a 700 MHz Bruker Avance III instrument. The 2D data was collected with a 90° pulse width between 10.2 and 11.0 μs, which was optimized prior to each experiment. 128 complex increments were collected in the State-TPPI mode with 8 scans per increment, 2 s recycle time, and 250 ms mixing time. […]

[3] = Fragment partitioning in DLPC/DPC mmRMs by 2D 1H-1H NOESY; assay type: physicochemical; conditions: 5 mM fragment, deuterated pentane and hexanol, no GPx4
Method: We sought to understand the potential membrane partitioning of these fragments by evaluating their behavior in mmRMs, again using fragments 1, 5, and 6 as our benchmarks. To evaluate fragment partitioning in the mmRM system, 2D ^1H–^1H NOESY experiments were performed, which report on the spatial proximity of intra- and intermolecular nuclei. […] The mmRMs were constructed from deuterated pentane and hexanol to reduce solvent signal and associated NOESY artifacts, which were still present, but NOESY measurements were possible.[60] […] Fragment 5 was the most hydrophobic fragment hit from this screen with a predicted cLog D of ∼2. […] A lack of NOEs to pentane is due to the necessity of using deuterated pentane for artifact reduction and attempts to directly observe solvent NOEs failed. The most hydrophilic fragment, fragment 6 with a predicted cLog D of about −2, is expected to predominantly have intermolecular interactions with the water phase of the mmRM (Figures 5c and S4c). However, interference from the water peak introduced streaking and precluded the visualization of clear cross-peaks.
Partitioning coefficients for fragment hits and analogues were calculated using a Marvin Log D calculator (Chemaxon) and were used to prioritize fragments for 2D NOESYs. mmRMs were premade as previously described and loaded with 5 mM dried fragment 1, 5, or 6 before shaking overnight. A high concentration of fragments is needed for these experiments to observe the intermolecular NOEs between the fragments and the membrane model components. For the DHPC/DMPC samples, the q = 1.0 bicelles were constructed routinely,[55] as described in the Supporting Information, with an additional step to ensure the complete removal of water before experimentation. An aliquot of buffer (100 mM Bis-Tris pH 6.0, 100 mM NaCl, and 10 mM DTT) was frozen and freeze-dried overnight to remove residual water. The dried buffer was then resuspended in 100% D2O, mixed, and frozen before another round of freeze-drying. […]

| SMILES | CSPs of aqueous GPx4 ([1]; 400 μM analogue, 1.5% DMSO) | Partitioning in bicelles (intermolecular NOEs) [2] | Partitioning in mmRM (intermolecular NOEs) [3] | Binding to aqueous GPx4 (CSPs versus mmRM) [1] | Binding to aqueous GPx4 (CSPs) [1] |
| --- | --- | --- | --- | --- | --- |
| O=c1oc2c(-c3ccc(Cl)c(Cl)c3)cc(O)cc2s1 [Analog 5.5] | little to no shifting | – | – | – | – |
| O=c1cc(Nc2ccccc2)cc[nH]1 [Fragment 1, 4-(phenylamino)-1,2-dihydropyridin-2-one] | – | partitions to the bicelle | clear NOE cross-peaks to the surfactant shell | do not bind strongly to the aqueous form of the protein | neither produced significant CSPs |
| O=c1oc2ccc(O)cc2s1 [Fragment 5, 5-hydroxy-1,3-benzoxathiol-2-one] | – | full partitioning into the hydrophobic core of the bicelles | the majority of the fragment must reside in the alkane phase of the reverse micelle | do not bind strongly to the aqueous form of the protein | does produce some CSPs that could be detected by a soluble screen |
| COCCNCc1ccncc1.Cl [Fragment 6, (2-methoxyethyl)(4-pyridinylmethyl)amine hydrochloride] | – | no NOE cross-peaks to bicelle surfactants were observed | prefers to reside in the water core of the mmRM | do not bind strongly to the aqueous form of the protein | neither produced significant CSPs |
